Test results reported in patent publication US4436751A, “Nitrobenzyl monates antibacterial compounds” (Beecham Group Limited, priority 1980, dated 1984).
Values after ≈ are worked out from the molar mass of the structure shown.

How the values were obtained:
Format in all cases: cell-based
M. bovis RCTC 10131 = experiment: microbe, parasite or virus in culture; settings: RCTC10131, 144 h
M. suipneumoniae HR(2) = experiment: Anti-mycoplasmal MIC in vitro, Friis broth agarose (Table 1); settings: Mesomycoplasma hyopneumoniae, 144 h
Staph. aureus B4 = experiment: Veterinary bacteria MIC, Diagnostic Sensitivity Test Agar (Table 2); settings: Staphylococcus aureus, B4, 18 h
Method: (§1) The values were determined using a two fold serial dilutions in Diagnostic Sensitivity Test Agar with an inoculum of 10^4 organisms and incubation for 18 hours at 37° C.

E. Coli E1 = experiment: as above; settings: Escherichia coli, 18 h
Method: as §1

Past. multocida PA2 = experiment: as above; settings: Pasteurella multocida, PA2, 18 h
Method: as §1

S. typhimurium S18 = experiment: as above; settings: Salmonella enterica, TYPHIMURIUM, 18 h
Method: as §1

Staph. aureus 152 = experiment: as above; settings: Staphylococcus aureus, 152, 18 h
Method: as §1

[1] = test system: Corynebacterium pyogenes CY1; experiment: as above; settings: Trueperella pyogenes, CY1, 18 h
Method: as §1

S. dublin S7 = experiment: as above; settings: Salmonella enterica, S7, 18 h
Method: as §1

Staph. aureus Oxford = experiment: as above; settings: Staphylococcus aureus, 18 h
Method: as §1

Strep. dylgalactiae SPD1 = experiment: as above; settings: 18 h
Method: as §1

[2] = test system: Erysipelothrix rhusiopathiae NCTC 8163; experiment: as above; settings: Erysipelothrix rhusiopathiae, NCTC8163, 18 h
Method: as §1

[3] = test system: Strep. suis (group D) SPS11; experiment: as above; settings: Streptococcus suis, 18 h
Method: as §1

Strep. agalactiae SPA1 = experiment: as above; settings: Streptococcus agalactiae, SPA1, 18 h
Method: as §1

M. hyorhinis ATCC 25021 = experiment: Anti-mycoplasmal MIC in vitro, Friis broth agarose (Table 1); settings: Mesomycoplasma hyorhinis, ATCC25021, 144 h
[4] = test system: M. suipneumoniae PW/C/210; experiment: as above; settings: Mesomycoplasma hyopneumoniae, 144 h
M. gallisepticum S6 = experiment: as above; settings: Mycoplasmoides gallisepticum, S6, 144 h
Strep. 641848-C = experiment: Human bacteria MIC, nutrient agar with chocolated horse blood (Table 3); settings: 18 h
Method: (§2) The values were determined by serial dilutions in nutrient agar with 5% chocolated horse blood after incubations for 18 hours at 37° C.

E. coli ESS = experiment: as above; settings: Escherichia coli, 18 h
Method: as §2

Strep. 2733-B = experiment: as above; settings: 18 h
Method: as §2

[5] = test system: Neisseria catarrhalis 1502; experiment: as above; settings: Neisseria, 1502, 18 h
Method: as §2

M. suipneumoniae TAM 6N = experiment: Anti-mycoplasmal MIC in vitro, Friis broth agarose (Table 1); settings: Mesomycoplasma hyopneumoniae, TAM6N, 144 h
M. suipneumoniae MS 16 = experiment: as above; settings: Mesomycoplasma hyopneumoniae, MS16, 144 h
[6] = test system: M. suipneumoniae J2206/183b; experiment: as above; settings: Mesomycoplasma hyopneumoniae, J2206/183B, 144 h
M. suipneumoniae Str. 11 = experiment: as above; settings: Mesomycoplasma hyopneumoniae, STR.11, 144 h
[7] = test system: M. suipneumoniae ATCC 25095; experiment: as above; settings: Mesomycoplasma hyopneumoniae, ATCC25095, 144 h
[8] = test system: M. suipneumoniae NCTC 10110; experiment: as above; settings: Mesomycoplasma hyopneumoniae, NCTC10110, 144 h
M. suipneumoniae LABER = experiment: as above; settings: Mesomycoplasma hyopneumoniae, 144 h

SMILES: C/C(=C\C(=O)OCc1ccc([N+](=O)[O-])cc1[N+](=O)[O-])CC1OCC(CC2OC2C(C)C(C)O)C(O)C1O (centres unmarked) [Example 10, 2,4-dinitrobenzyl monate A]
- MIC (M. bovis RCTC 10131): ≤ 0.01 µg/mL
- MIC (M. suipneumoniae HR(2)): 1 µg/mL (≈ 1.91 µM)
- MIC (Staph. aureus B4): 0.625 µg/mL (≈ 1.19 µM)
- MIC (E. Coli E1): > 80 µg/mL
- MIC (Past. multocida PA2): 0.625 µg/mL (≈ 1.19 µM)
- MIC (S. typhimurium S18): > 80 µg/mL
- MIC (Staph. aureus 152): 0.625 µg/mL (≈ 1.19 µM)
- MIC [1]: > 80 µg/mL
- MIC (S. dublin S7): > 80 µg/mL
- MIC (Staph. aureus Oxford): 0.625 µg/mL (≈ 1.19 µM)
- MIC (Strep. dylgalactiae SPD1): 0.312 µg/mL (≈ 0.595 µM)
- MIC [2]: 20 µg/mL (≈ 38.1 µM)
- MIC [3]: 5 µg/mL (≈ 9.53 µM)
- MIC (Strep. agalactiae SPA1): 1.25 µg/mL (≈ 2.38 µM)
- MIC (M. hyorhinis ATCC 25021): 0.5 µg/mL (≈ 0.953 µM)
- MIC [4]: 0.5 µg/mL (≈ 0.953 µM)
- MIC (M. gallisepticum S6): 5 µg/mL (≈ 9.53 µM)
- MIC (Strep. 641848-C): 2.5 µg/mL (≈ 4.77 µM)
- MIC (E. coli ESS): 2.5 µg/mL (≈ 4.77 µM)
- MIC (Strep. 2733-B): 2.5 µg/mL (≈ 4.77 µM)
- MIC [5]: 0.05 µg/mL (≈ 0.0953 µM)
- MIC (M. suipneumoniae TAM 6N): 1 µg/mL (≈ 1.91 µM)
- MIC (M. suipneumoniae MS 16): 0.5 µg/mL (≈ 0.953 µM)
- MIC [6]: 1 µg/mL (≈ 1.91 µM)
- MIC (M. suipneumoniae Str. 11): 0.5 µg/mL (≈ 0.953 µM)
- MIC [7]: 0.5 µg/mL (≈ 0.953 µM)
- MIC [8]: 1 µg/mL (≈ 1.91 µM)
- MIC (M. suipneumoniae LABER): 0.5 µg/mL (≈ 0.953 µM)

SMILES: C/C(=C\C(=O)OCc1cc([N+](=O)[O-])cc([N+](=O)[O-])c1C)CC1OCC(CC2OC2C(C)C(C)O)C(O)C1O (centres unmarked) [Example 7, 3,5-dinitro-2-methylbenzyl monate A]
- MIC (M. bovis RCTC 10131): ≤ 0.1 µg/mL
- MIC (M. suipneumoniae HR(2)): 0.25 µg/mL (≈ 0.464 µM)
- MIC (Staph. aureus B4): 0.625 µg/mL (≈ 1.16 µM)
- MIC (E. Coli E1): > 80 µg/mL
- MIC (Past. multocida PA2): 1.25 µg/mL (≈ 2.32 µM)
- MIC (S. typhimurium S18): > 80 µg/mL
- MIC (Staph. aureus 152): 0.625 µg/mL (≈ 1.16 µM)
- MIC [1]: > 80 µg/mL
- MIC (S. dublin S7): > 80 µg/mL
- MIC (Staph. aureus Oxford): 0.625 µg/mL (≈ 1.16 µM)
- MIC (Strep. dylgalactiae SPD1): 0.625 µg/mL (≈ 1.16 µM)
- MIC [2]: 10 µg/mL (≈ 18.6 µM)
- MIC [3]: 10 µg/mL (≈ 18.6 µM)
- MIC (Strep. agalactiae SPA1): 0.625 µg/mL (≈ 1.16 µM)
- MIC (M. hyorhinis ATCC 25021): 0.1 µg/mL (≈ 0.186 µM)
- MIC [4]: 0.1 µg/mL (≈ 0.186 µM)
- MIC (M. gallisepticum S6): 2.5 µg/mL (≈ 4.64 µM)
- MIC (Strep. 641848-C): 1 µg/mL (≈ 1.86 µM)
- MIC (E. coli ESS): 2.5 µg/mL (≈ 4.64 µM)
- MIC (Strep. 2733-B): 2.5 µg/mL (≈ 4.64 µM)
- MIC [5]: 0.25 µg/mL (≈ 0.464 µM)
- MIC (M. suipneumoniae TAM 6N): 0.25 µg/mL (≈ 0.464 µM)
- MIC (M. suipneumoniae MS 16): 0.1 µg/mL (≈ 0.186 µM)
- MIC [6]: 0.25 µg/mL (≈ 0.464 µM)
- MIC (M. suipneumoniae Str. 11): 0.1 µg/mL (≈ 0.186 µM)
- MIC [7]: 0.25 µg/mL (≈ 0.464 µM)
- MIC [8]: 0.25 µg/mL (≈ 0.464 µM)
- MIC (M. suipneumoniae LABER): 0.1 µg/mL (≈ 0.186 µM)
